Source: article PMC9763021, “Comprehensive Assessment of Biomolecular Interactions of Morpholine-Based Mixed Ligand Cu(II) and Zn(II) Complexes of 2,2′-Bipyridine as Potential Anticancer and SARS-CoV-2 Agents: A Synergistic Experimental and Structure-Based Virtual Screening” (Bioinorganic Chemistry and Applications, 2022)

Legend:
CT-DNA = assay: DNA thermal denaturation (biothermodynamic properties); type: binding, calf thymus; conditions: for Tm (K) / Tm °C of DNA-compound adduct: 260 nm, [DNA]/[Complex] = 1; for Tm °C of DNA-compound adduct: CT-DNA alone 68°C; for ΔH°: Van't Hoff equation; for ΔTm °C: versus free DNA (68°C); for ΔG°: −R.Tm.lnKm
Description: Thermal denaturation characteristics were executed by a UV-visible spectrophotometer in a temperature-controlled sample container in both the presence and absence of the substances. In a Tris-HCl buffer solution with a pH of 7.4, all substances were incubated with CT-DNA in a 1 : 1 ratio. Temperature increases of two degrees Celsius per minute were applied to test substances in the range of 25 to 100°C, and the changes in absorbance at 260 nm were carefully scrutinized.
DNA denaturation contributes to the root cause of several chronic diseases, hereditary disorders, and a reduction in the ability of DNA repair to work properly. The biothermodynamic properties were further supported to determine the ability of stabilization of the double-standard DNA, and it offers details on the structural alterations, the degree of the DNA-compound system, the external binding-mediated neutralization of phosphate charges on DNA, and the stacking interactions, all of which work together to raise the DNA's melting point. […] The Van't Hoff (9) and Gibbs Helmholtz equations (10) were supportive in evaluating the biothermodynamic parameters, which are enclosed in Table 2. […] The influencing factors between test compounds and DNA mostly depend on the type of interaction mode. Because of the driving forces, H-bonds, weak Van der Waals forces, and electrostatic modes of binding all occur while the enthalpy is favourable. Hydrophobic forces induce binding while entropy is favourable; on the other hand, the loss of structural degrees of freedom leads to undesirable entropic changes. As per Ross and colleagues, the findings for ΔH° and ΔS° can alternatively be derived in the following favourable sequence. If ΔH° > 0 and ΔS° > 0, this attributes intercalation due to hydrophobic forces of attraction. If ∆H° < 0 and ΔS° < 0, this involves weak Van der Waals forces of attraction and H-bonding interactions. On the other hand, if ΔH° < 0 (or), ΔH°≈0 and ∆S° > 0, this indicates the electrostatic mode of binding possible between DNA and compounds [28, 68]. […] Furthermore, it is widely acknowledged that the hydration and generation of the compound-deoxyribonucleic acid adduct system via the counter ion liberating mechanism are highly dependent on the hydrophobic forces of attraction.

[1] = DPPH radical scavenging assay; type: biochemical; conditions: for % Inhibition DPPH: 517 nm
Description: All samples were evaluated for their scavenging ability with the help of UV-visible spectrophotometer at different concentrations of 40, 80, 120, 160, 200, and 240 μM [6, 28]. While performing the antioxidant properties for the DPPH, hydroxyl, superoxide, and nitric oxide radical scavenging, the absorbance at 517, 230, 590, and 546 nm, respectively, was closely observed. In addition, the observed IC50 values of all samples were compared with ascorbic acid.
The colour of an aqueous or methanol solution changes from deep purple to pale yellow when DPPH, a stable chromogen free radical, combines with an antioxidant molecule, which means that DPPH quickly absorbs the hydrogen or electrons from the donor groups. In this case, for the baseline correction, a blank DPPH solution in the absence of a test compound was employed, and 517 nm (ε = 8320 M^−1·cm^−1) was attained to have a significant absorption maximum. […] The DPPH radicals are reduced by an antioxidant compound (AH), in which the reduction of electronic absorbance for each compound was vigilantly noted at 517 nm. The capacity to block radicals improves as the sample concentration increases. The assessed percentage of maximum inhibition for all substances was found at 240 μM in the subsequent order: (ascorbic acid) (85.65) > (1a) 68.64 > (2a) 59.55 > (HL) 52.45. […] Moreover, the % of scavenging or maximum inhibition for all substances is estimated with the aid of equation (44) (Table S14).(43) Scavanging%=A0−AS/A0×100

Staphylococcus aureus = assay: Agar disc diffusion, strain F; type: cell-based; parameters: (inhibition %): concentration or dose not given beside the values; conditions: for diameter of the clear zone inhibition: control = 6 mm
Description: In-vitro antimicrobial properties were evaluated for all samples by the agar disc diffusion method towards different fungal and bacterial strains. Additionally, the reported inhibition zone values were comparatively analyzed with the standard antifungal drugs ketoconazole and amphotericin B as well as the standard antibiotic medications streptomycin and amikacin.
The current research has a curious focus on the in vitro antimicrobial properties of biological systems because these studies are crucial for developing effective antibacterial and antifungal medications. […] It can also be spelled out based on the chelation theory proposed by Overtone and Tweedy. Chelation theory points out that the partial exchanging of the positive charge of the metal center with donor moieties, and overlap of the ligand orbitals will reduce the greater degree of the metal ion's polarity, which ultimately rises the delocalization of π and d electrons over the full chelated ring system. By raising the size of the metal ion due to the retarding of polarization, chelation may also enhance the complexes' lipophilic characteristics, which further stimulate the lipid membrane permeability and break down the bacteria' enzymes responsible for cell wall formation, therefore slowing down the regular cell processes. By preventing the production of cell walls/proteins/DNA, including by obstructing folate metabolism and the cytoplasmic membrane, antimicrobial drugs frequently either fully eliminate microbes or only prevent their cell growth. Additionally, the samples' mode of action may be employed in disrupting the cell's respiration process by forming an H-bond during the morpholine-fused iminic group coordinated with the active metal center of its components, inhibiting proliferation of the cell. […] The difference in the antimicrobial efficacy of some of the compounds towards various microorganisms influences on the impermeability of the cells of the germs or the diversity of ribosomes of the microbes. The % of the inhibition of all substances is estimated from (45) (Table 9).
(A, B, C, D, and E are represented as gram negative bacteria species Escherichia coli, Salmonella enteric serovar typhi, Salmonella enteric serovar typhi, Pseudomonas aeruginosa, and Shigella flexneri, respectively. F & G are denoted as gram positive bacteria species Staphylococcus aureus and Bacillus cereus. H, I, and J are represented as fungal strains Aspergillus niger, Candida albicans, and Mucor indicus. Standard drugs for bacterial strains: Amikacin & Streptomycin Standard drugs for fungal strains: Ketoconazole and Amphotericin B. [Control (DMSO) = 6 mm].(44) Inhibition %=T–C/T×100, where T and C are represented as the diameter of microbial growth of the sample plates and the control plate (6 mm), respectively. Error limits ±2.5–5.0% (P ≤ 0.05).

Structure (SMILES)	ΔS° (CT-DNA)	Tm (K) (CT-DNA)	Tm °C of DNA-compound adduct (CT-DNA)	Binding constant Kr at 298 K (CT-DNA)	ΔH° (CT-DNA)	ΔTm °C (CT-DNA)	ΔG° (CT-DNA)	% Inhibition DPPH ([1]; 40 µM)	% Inhibition DPPH ([1]; 80 µM)	% Inhibition DPPH ([1]; 120 µM)	% Inhibition DPPH ([1]; 160 µM)	% Inhibition DPPH ([1]; 200 µM)	% Inhibition DPPH ([1]; 240 µM)	(inhibition %) (Staphylococcus aureus)	diameter of the clear zone inhibition (Staphylococcus aureus)	IC50 [1]
Oc1ccccc1N=Cc1ccc(N2CCOCC2)cc1 [(HL), 2-(4-morpholinobenzylideneamino)phenol]	–13.7851 cal mol^–1	347 K	74 °C	1.5169 × 10^4 M^–1	–9.8083 kcal mol^–1	6 °C	–5.0249 kcal mol^–1	09.45%	15.21%	26.36%	34.56%	39.41%	52.45%	33%	09 mm	–
[Cu+2].[O-]c1ccccc1N=Cc1ccc(N2CCOCC2)cc1.[O-]c1ccccc1N=Cc1ccc(N2CCOCC2)cc1.c1ccc(-c2ccccn2)nc1 [(1a), [Cu(L)2(bpy)]]	–6.9577 cal mol^–1	353 K	80 °C	1.9000 × 10^4 M^–1	–7.9071 kcal mol^–1	12 °C	–5.4511 kcal mol^–1	17.53%	30.62%	35.74%	51.72%	57.95%	68.64%	50%	12 mm	160 µM
[O-]c1ccccc1N=Cc1ccc(N2CCOCC2)cc1.[O-]c1ccccc1N=Cc1ccc(N2CCOCC2)cc1.[Zn+2].c1ccc(-c2ccccn2)nc1 [(2a), [Zn(L)2(bpy)]]	–8.4501 cal mol^–1	351 K	78 °C	1.8287 × 10^4 M^–1	–8.3292 kcal mol^–1	10 °C	–5.3632 kcal mol^–1	12.75%	24.73%	30.02%	39.68%	48.79%	59.55%	45%	11 mm	–
